Where two headings read alike, the source gives them in different places. Peptide text beside a SMILES is read from it.
Key:
[1] = system: A. baumannii 7226/16; assay: Crystal violet assay of biofilm formation; assay type: cell-based, Acinetobacter baumannii; conditions: median of 3 independent experiments; for Minimal FECI, AMP + CAPB, biofilm formation: combination with cocamidopropyl betaine; for Minimal FECI, AMP + DXD, biofilm formation: combination with dioxydin; for Minimal FECI, AMP + ETA, biofilm formation: combination with etidronic acid; for Minimal FECI, AMP + PTS, biofilm formation: combination with prontosan; for MECBF partially inhibiting bacterial biofilms: minimal concentration with significant decrease vs intact control (Mann–Whitney, p < 0.05), 24 h, 37 °C, MHB
Description: The impact of the tested antimicrobials and their combinations on the formation of biofilms was quantitated as per the crystal violet assay protocol published by Merritt et al.. Testing was performed in 96-well immunological plates with U-shaped bottoms. Overnight cultures of tested bacteria in MHB were diluted by a factor of 50, mixed 1:1 with 50 μL of active compounds or combinations in the same growth medium adjusted to double the desired final concentration, and left to form biofilms for 24 h at 37 °C. Experimental samples were quadruplicated, and control without antimicrobials was octuplicated.
Then, the liquid content of the test plates was discarded, and the plates were gently washed in still water from residual traces of unattached planktonic bacteria. Each well was supplied with 125 μL 0.1% aqueous solution of crystal violet dye for 10 min at room temperature to stain biofilm components left attached to the surface. After staining, the plates were washed with clear water once more to remove excessive dye and left to air-dry. To quantify the amount of the bound dye corresponding to the thickness of the formed biofilm, it was redissolved in 30% acetic acid, 200 μL of which was introduced into each well. After 15 min at room temperature, the content of the wells was mixed by repetitive pipetting to ensure complete dye extraction, and 125 μL of each sample was transferred well-by-well into 96-well clear flat-bottom plates for spectrophotometric examination. OD was measured at 580 nm. Final results were calculated as medians based on three independent experiments.
The minimal concentrations of AMPs and antiseptics causing a statistically significant inhibitory effect on biofilm formation (i.e., a statistically significant decrease compared with the control biofilm formed by the intact bacteria; Mann–Whitney U-test, p < 0.05) are shown in Table 3 and are later referenced as MECBF (for minimal effective concentration regarding biofilm formation). The exact value of such a minimal effect is admittedly small, within the range of a 10–20% decrease in the density of the emerging biofilm. Thus, the practical usefulness of such an effect, even if strengthened in combinations, is quite questionable; however, from the academic point of view, even slight changes can provide us with information on the mode of interaction between AMPs and antiseptics and allow us to make certain assumptions about the nature of such interactions.
Analyzing the combined action of AMPs and antiseptics (AS) in sub-microbicidal concentrations toward biofilms, we adopted the same approach based on the calculation of fractional indices as the one we used while testing antimicrobial activity on planktonic bacteria. For combinations, the series of concentrations from [MECBF(AMP) + MECBF(AS)], [½MECBF(AMP) + ½MECBF(AS)] and down to [1/32 × MECBF(AMP) + 1/32 × MECBF(AS)] was analyzed. […] The fractional indices, denoted here as fractional effective concentration indices (FECIs), were calculated as follows: FECI = [AMP]/MECBF(AMP) + [AS]/MECBF(AS), where [AMP] and [AS] are the concentration of AMP and antiseptic in a combination that has a statistically significant inhibitory effect on the formation of biofilms if compared with the intact control (Mann–Whitney U-test, p < 0.05). The minimal FECI > 4 was interpreted as antagonism, FECI ≤ 0.5 as synergy, 0.5 < FECI ≤ 1 as additivity, and 1 < FECI ≤ 4 as independent action.

[2] = system: K. pneumoniae ESBL 344/17; assay: microbe, parasite or virus in culture; assay type: cell-based, Klebsiella pneumoniae
Description: In this regard the test plates were preincubated for 1 h at 37 °C with 0.1% bovine serum albumin (BSA) in distilled water before use. Bacteria were grown overnight at 37 °C with shaking in 2.1% Müller–Hinton broth (MHB), and then a small aliquot was transferred into the fresh portion of the same medium for another 2–3 h on the day of the experiment to provide us with the log phase bacterial suspension. Concentration of bacterial cells in suspension was evaluated based on absorbance at 620 nm and diluted down to 1 × 10^6 CFU/mL with MHB. Equal volumes of the prepared bacterial suspension in MHB and two-fold serial dilutions of the antimicrobials in 10 mM sodium phosphate (Na-P) buffer (pH 7.4) with 0.1% BSA were mixed and incubated overnight at 37 °C. The lowest concentration where no bacterial growth was observed the next day under visual examination was considered the minimal inhibitory concentration. The test was repeated at least three times, and the final MIC value was established as a median result. Each experiment was conducted in triplicates. Terasaki microplates (10 µL end volume, V-shaped bottom; Sarstedt, Nümbrecht, Germany) were used.

[3] = system: human erythrocytes; assay type: cell-based
Description: Hemolytic properties of the test substances and their combinations were assessed as previously described. Whole human blood was collected from healthy donors by venipuncture into sterile EDTA-covered vacuum tubes, diluted 10 times with ice-cold phosphate-buffered saline (PBS) containing 4mM EDTA for the start, and then washed out twice with still ice-cold but anticoagulant-free PBS by a 10 min long centrifugation at 300× g and 4 °C to remove plasma and anticoagulant altogether. […] Samples were incubated for 30 min at 37 °C and then supplied with 90 µL of ice-cold PBS to stop further hemolysis. Remaining RBCs or their debris were precipitated by 4 min of centrifugation at 10,000× g and room temperature, and 100 µL of the supernatants was transferred to a 96-well clear flat-bottom test plate to spectrophotometrically detect hemoglobin released from the damaged RBCs. OD was measured at 540 nm—one of the hemoglobin absorbance maxima. The samples with 6 µL of pure PBS (with no potentially hemolytic agents) were used as a 0% lysis reference point. Experimental samples were compared with 0% lysis control by the Mann–Whitney U-test (p < 0.05) to identify statistically significant hemolytic action. In case the exact level of effect was of interest, the samples with 6 µL of 5% v/v Triton X-100 in PBS were also prepared to additionally obtain a 100% lysis reference point and calculate the percentage of hemolysis in test samples as hemolysis (%) = (ODsample − OD0% lysis)/(OD100% lysis − OD0% lysis) × 100%. At least three independent repeats were performed.
The absence “–” or presence “+” of a statistically significant difference compared with the intact control once exposed to the action of combinations of AMPs and antiseptics in concentrations equal to ½ or ¼ of their individual MECH was evaluated in a series of three independent experiments.

[4] = sub-microbicidal concentrations
[5] = antiseptics and surfactants, 2.5% v/v RBC in PBS, 30 min, 37 °C, median of 3 independent experiments, prontosan as polyhexanide
[6] = antiseptics and surfactants, MHB, overnight 37 °C, median of 3–4 independent experiments, prontosan as polyhexanide

| Compound | Minimal FECI, AMP + CAPB, biofilm formation [1, 4] | Minimal FECI, AMP + DXD, biofilm formation [1, 4] | Minimal FECI, AMP + ETA, biofilm formation [1, 4] | Minimal FECI, AMP + PVG, biofilm formation ([1]; combination with poviargolum, sub-microbicidal concentrations) | Minimal FECI, AMP + PTS, biofilm formation [1, 4] | MECBF partially inhibiting bacterial biofilms [1] | MIC ([2]; ESBL 344/17, 1 h) [µM] | MECH [3] | MECH of hemolysis of human erythrocytes [3, 5] [µg/mL] | MIC [2, 6] [mg/mL] | MECH of hemolysis of human erythrocytes [3] | MIC ([2]; Klebsiella pneumoniae, ESBL344/17, antiseptics and surfactants, MHB, overnight 37 °C, median of 3–4 independent experiments, prontosan as polyhexanide, read-out: MIC) [mg/mL] |
| --- | --- | --- | --- | --- | --- | --- | --- | --- | --- | --- | --- | --- |
| CC[C@H](C)[C@H](NC(=O)[C@H](CCCNC(=N)N)NC(=O)[C@@H](NC(=O)[C@@H]1CCCN1C(=O)[C@@H]1CCCN1C(=O)[C@H](CCCNC(=N)N)NC(=O)[C@H](CCCNC(=N)N)NC(=O)[C@H](Cc1ccccc1)NC(=O)[C@@H]1CCCN1C(=O)[C@H](CC(C)C)NC(=O)[C@H](CCCNC(=N)N)NC(=O)[C@H](Cc1ccccc1)NC(=O)[C@@H](N)CCCNC(=N)N)[C@@H](C)CC)C(=O)N[C@@H](Cc1c[nH]cn1)C(=O)N1CCC[C@H]1C(=O)N1CCC[C@H]1C(=O)N1CCC[C@H]1C(=O)N[C@@H](Cc1ccccc1)C(=O)N[C@@H](Cc1ccc(O)cc1)C(=O)N1CCC[C@H]1C(=O)N1CCC[C@H]1C(=O)N[C@@H](Cc1ccccc1)C(=O)N[C@@H](CCCNC(=N)N)C(=O)N[C@@H](CCCNC(=N)N)C(=O)N[C@@H](Cc1ccccc1)C(=O)N[C@@H](CC(C)C)C(=O)O [ChBac3.4] (H-RFRLPFRRPPIRIHPPPFYPPFRRFL-OH; N-terminus assumed) | 0.5 | 1 | 1.12 | 1 | 0.5 | 1/16 | 3.1 |  |  |  |  |  |
| [O-][n+]1c(CO)c(CO)[n+]([O-])c2ccccc21 [Dioxydin] |  |  |  |  |  | 1/16 |  | higher than 0.5 mg/mL | 500 | 0.0156 |  |  |
| CC(O)(P(=O)(O)O)P(=O)(O)O [Etidronic acid] |  |  |  |  |  | 1/128 |  |  |  |  | 5000 µg/mL | 50 |
| CC(C)C[C@H](NC(=O)[C@H](CCCNC(=N)N)NC(=O)CNC(=O)CNC(=O)[C@@H](N)CCCNC(=N)N)C(=O)N[C@H]1CSSC[C@@H](C(=O)N[C@H](C(=O)NCC(=O)N[C@@H](CCCNC(=N)N)C(N)=O)C(C)C)NC(=O)[C@H](C(C)C)NC(=O)[C@@H]2CSSC[C@H](NC(=O)[C@H](Cc3ccc(O)cc3)NC1=O)C(=O)N[C@@H](CCCNC(=N)N)C(=O)N[C@@H](CCCNC(=N)N)C(=O)N[C@@H](CCCNC(=N)N)C(=O)N[C@@H](Cc1ccccc1)C(=O)N2 [PG-1, protegrin 1] | 0.5 | 1.12 | 1.12 |  | 0.25 | 1/32 | 3.1 |  |  |  | 0.5 µM |  |
| Cocamidopropyl betaine |  |  |  |  |  | 1/32 |  |  | 1 | 0.1562 |  |  |

— publication PMC9863607, “Combined Use of Antimicrobial Peptides with Antiseptics against Multidrug-Resistant Bacteria: Pros and Cons” (Pharmaceutics, 2023)
